Measurements reported in ChEMBL document CHEMBL1201862, “PubChem BioAssay data set” (2004).
Active and inactive are the calls of the source.

Columns and labels:
Large T antigen = Large T antigen (Simian virus 40, UniProt P03070); assay type: functional, Betapolyomavirus macacae;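 also: Confirmatory-stage PubChem screen for compounds that inhibit SV40 T antigen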
[1] = target: T1, Rac GTPase-activating protein 1 (Homo sapiens, UniProt Q9H0H5); test: blockers of MgcRacGAP-driven Rac1 GTP hydrolysis – biochemical, ADP Hunter fluorescence, primary and confirmatory, confirmation (AID 624330); assay type: functional
T1 sequence (Q9H0H5 whole entry): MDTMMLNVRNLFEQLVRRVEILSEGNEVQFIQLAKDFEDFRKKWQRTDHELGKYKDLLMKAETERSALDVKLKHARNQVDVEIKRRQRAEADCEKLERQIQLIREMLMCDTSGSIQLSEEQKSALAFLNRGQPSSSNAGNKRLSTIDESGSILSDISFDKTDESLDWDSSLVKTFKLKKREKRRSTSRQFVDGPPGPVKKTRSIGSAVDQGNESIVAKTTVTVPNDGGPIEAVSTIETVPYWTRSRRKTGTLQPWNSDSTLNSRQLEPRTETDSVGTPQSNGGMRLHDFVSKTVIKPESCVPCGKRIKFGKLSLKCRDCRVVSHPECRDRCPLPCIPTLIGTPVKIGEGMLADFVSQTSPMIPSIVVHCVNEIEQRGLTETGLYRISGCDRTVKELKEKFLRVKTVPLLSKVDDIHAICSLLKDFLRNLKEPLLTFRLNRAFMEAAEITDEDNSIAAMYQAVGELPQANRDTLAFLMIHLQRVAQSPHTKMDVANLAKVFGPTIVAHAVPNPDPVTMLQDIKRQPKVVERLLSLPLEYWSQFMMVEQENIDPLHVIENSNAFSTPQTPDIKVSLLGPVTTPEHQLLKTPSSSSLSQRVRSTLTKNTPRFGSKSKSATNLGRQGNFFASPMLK

Genome polyprotein = Genome polyprotein (dengue virus type 2, UniProt P29990); test: flavivirus cap methylation enzyme inhibition – biochemical, confirmation dose response, primary screen (AID 588689); assay type: functional
Protein skinhead-1 = target: T2, Protein skinhead-1 (Caenorhabditis elegans, UniProt P34707); assay type: functional
T2 sequence (P34707 whole entry): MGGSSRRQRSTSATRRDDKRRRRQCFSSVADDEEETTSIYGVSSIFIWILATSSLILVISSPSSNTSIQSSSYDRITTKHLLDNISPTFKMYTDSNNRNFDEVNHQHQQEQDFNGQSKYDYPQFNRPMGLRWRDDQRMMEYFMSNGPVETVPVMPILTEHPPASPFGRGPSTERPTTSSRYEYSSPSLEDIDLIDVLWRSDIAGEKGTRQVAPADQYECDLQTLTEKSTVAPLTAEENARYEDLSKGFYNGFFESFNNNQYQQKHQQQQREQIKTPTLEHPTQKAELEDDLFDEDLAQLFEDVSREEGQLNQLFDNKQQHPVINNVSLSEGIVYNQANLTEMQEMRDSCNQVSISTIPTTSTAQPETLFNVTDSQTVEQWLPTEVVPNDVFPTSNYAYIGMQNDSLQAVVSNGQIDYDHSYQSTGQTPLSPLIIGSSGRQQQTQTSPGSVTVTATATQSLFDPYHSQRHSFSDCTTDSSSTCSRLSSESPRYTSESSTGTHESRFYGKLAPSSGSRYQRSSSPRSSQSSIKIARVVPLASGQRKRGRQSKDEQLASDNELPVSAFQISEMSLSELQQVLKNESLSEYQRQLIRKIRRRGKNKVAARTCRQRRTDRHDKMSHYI

[2] = target: T3, Replicative DNA helicase DnaB (Mycobacterium tuberculosis, UniProt P9WMR3); test: DnaB intein splicing inhibitors, dose response, biochemical, cell-free fluorescence (AID 449749); assay type: functional
T3 sequence (P9WMR3 whole entry): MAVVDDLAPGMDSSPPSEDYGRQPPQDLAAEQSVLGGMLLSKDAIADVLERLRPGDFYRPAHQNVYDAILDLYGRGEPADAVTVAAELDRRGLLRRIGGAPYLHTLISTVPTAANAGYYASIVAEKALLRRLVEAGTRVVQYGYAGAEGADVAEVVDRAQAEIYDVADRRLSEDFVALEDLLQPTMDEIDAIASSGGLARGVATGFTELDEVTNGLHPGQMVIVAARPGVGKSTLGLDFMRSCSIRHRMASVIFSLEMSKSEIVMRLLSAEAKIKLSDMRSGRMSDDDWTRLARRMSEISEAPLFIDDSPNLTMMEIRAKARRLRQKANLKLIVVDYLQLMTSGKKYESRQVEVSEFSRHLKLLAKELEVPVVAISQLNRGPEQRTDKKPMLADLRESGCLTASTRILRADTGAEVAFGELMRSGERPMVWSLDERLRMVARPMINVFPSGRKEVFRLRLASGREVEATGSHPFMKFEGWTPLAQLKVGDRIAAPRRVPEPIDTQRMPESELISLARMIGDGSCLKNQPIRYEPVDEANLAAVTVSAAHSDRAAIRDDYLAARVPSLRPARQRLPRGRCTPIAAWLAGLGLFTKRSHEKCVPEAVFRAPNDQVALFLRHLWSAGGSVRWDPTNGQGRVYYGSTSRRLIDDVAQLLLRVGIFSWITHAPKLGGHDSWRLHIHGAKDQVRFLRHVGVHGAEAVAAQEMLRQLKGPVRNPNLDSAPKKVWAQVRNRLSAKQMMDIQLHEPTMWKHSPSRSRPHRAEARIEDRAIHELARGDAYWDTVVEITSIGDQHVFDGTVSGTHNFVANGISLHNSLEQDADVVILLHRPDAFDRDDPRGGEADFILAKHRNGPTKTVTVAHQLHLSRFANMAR

Protein RecA = target: T4, Protein RecA (Mycobacterium tuberculosis, UniProt P9WHJ3); test: Fluorescence Cell-Free Homogeneous Dose Retest to Identify Inhibitors of RecA-Intein Splicing Activity. [Related pubchem assays (depositor defined):AID2097, AID2223, AID489010, AID492950]; assay type: functional
T4 sequence (P9WHJ3 whole entry): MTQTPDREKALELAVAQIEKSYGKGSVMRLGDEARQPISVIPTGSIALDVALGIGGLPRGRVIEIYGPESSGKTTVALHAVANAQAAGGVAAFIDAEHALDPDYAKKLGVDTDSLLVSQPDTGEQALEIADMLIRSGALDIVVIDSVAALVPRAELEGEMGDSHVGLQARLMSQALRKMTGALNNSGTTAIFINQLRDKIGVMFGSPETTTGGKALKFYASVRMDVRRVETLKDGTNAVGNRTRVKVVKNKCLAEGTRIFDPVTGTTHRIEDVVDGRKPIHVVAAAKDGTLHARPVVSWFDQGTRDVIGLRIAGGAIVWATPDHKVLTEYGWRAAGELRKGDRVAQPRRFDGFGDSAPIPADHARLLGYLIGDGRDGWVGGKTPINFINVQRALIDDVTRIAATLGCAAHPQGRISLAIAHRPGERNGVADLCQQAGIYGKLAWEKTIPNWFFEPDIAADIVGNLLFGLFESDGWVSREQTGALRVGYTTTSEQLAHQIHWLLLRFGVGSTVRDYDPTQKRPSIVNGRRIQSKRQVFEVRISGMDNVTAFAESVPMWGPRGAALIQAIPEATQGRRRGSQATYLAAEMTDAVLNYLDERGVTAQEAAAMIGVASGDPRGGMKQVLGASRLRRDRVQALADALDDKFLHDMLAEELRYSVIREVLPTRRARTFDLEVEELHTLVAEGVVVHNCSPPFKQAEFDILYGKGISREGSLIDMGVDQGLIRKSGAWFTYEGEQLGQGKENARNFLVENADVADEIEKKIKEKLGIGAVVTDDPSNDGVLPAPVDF

[3] = target: T5, RNA-binding protein pos-1 (Caenorhabditis elegans, UniProt G5EF15); test: disruptors of C. elegans POS-1 RNA interaction – biochemical, fluorescence polarization, dose response (AID 1964);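 also: purified POS-1 fused to maltose binding protein made in E. coli; potency of compounds blocking POS-1 binding to fluorescent RNA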
T5 sequence (G5EF15 whole entry): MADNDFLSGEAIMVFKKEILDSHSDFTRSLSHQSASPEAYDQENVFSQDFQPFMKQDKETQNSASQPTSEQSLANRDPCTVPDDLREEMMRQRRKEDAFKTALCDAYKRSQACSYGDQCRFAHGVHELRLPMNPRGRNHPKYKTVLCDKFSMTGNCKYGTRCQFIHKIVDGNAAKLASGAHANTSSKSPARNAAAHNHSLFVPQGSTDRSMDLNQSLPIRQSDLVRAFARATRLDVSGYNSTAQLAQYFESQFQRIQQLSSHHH

[4] = Luminescence Cell-Based Dose Confirmation HTS to Identify Activators of 5'UTR Stem-Loop Driven Alpha-Synuclein mRNA Translation in H4 Neuroglioblastoma Cells. [Related pubchem assays: 1829 (Project Summary), 1814 (Primary HTS)]; assay type: functional
[5] = Luminescence Cell-Based Dose Response HTS to Identify Activators of Luciferase Translation or Activity in H4 […] Cells. [Related pubchem assays: 1829 (Project Summary), 1814 (Primary HTS)]; assay type: functional
H4 = test: Luminescence Cell-Based Dose Response HTS to Identify Activators of 5'UTR Stem-Loop Driven Prion Protein mRNA Translation in H4 Neuroglioblastoma Cells. [Related pubchem assays: 1829 (Project Summary), 1814 (Primary HTS)]; assay type: functional; settings: Homo sapiens
[6] = target: T6, Zinc finger protein mex-5 (Caenorhabditis elegans, UniProt Q9XUB2); test: potency of MEX-5 RNA-binding blockers – biochemical, C. elegans, fluorescence polarization, dose response (AID 1960)
T6 sequence (Q9XUB2 whole entry): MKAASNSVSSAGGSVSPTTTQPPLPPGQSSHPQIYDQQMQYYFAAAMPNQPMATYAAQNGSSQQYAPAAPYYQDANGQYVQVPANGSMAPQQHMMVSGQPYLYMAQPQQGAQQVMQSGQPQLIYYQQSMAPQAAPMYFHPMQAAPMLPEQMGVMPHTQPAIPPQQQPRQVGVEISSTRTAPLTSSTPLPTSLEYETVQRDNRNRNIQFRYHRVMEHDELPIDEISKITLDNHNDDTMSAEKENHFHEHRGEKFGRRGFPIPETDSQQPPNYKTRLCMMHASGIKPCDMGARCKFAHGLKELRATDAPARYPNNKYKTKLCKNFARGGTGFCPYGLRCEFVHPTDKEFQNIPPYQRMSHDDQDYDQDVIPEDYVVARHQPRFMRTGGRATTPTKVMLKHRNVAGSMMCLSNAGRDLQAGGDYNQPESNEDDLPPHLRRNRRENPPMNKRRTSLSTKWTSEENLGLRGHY

[7] = target: T7, Corticotropin-releasing factor receptor 2/Corticotropin-releasing factor-binding protein (Homo sapiens, UniProt P24387+Q13324); test: activators of CRF receptor 2 with binding protein – uHTS hits, confirmation (AID 602473); assay type: functional; settings: read-out: EC50_Mean
T7 sequence (Q13324 whole entry): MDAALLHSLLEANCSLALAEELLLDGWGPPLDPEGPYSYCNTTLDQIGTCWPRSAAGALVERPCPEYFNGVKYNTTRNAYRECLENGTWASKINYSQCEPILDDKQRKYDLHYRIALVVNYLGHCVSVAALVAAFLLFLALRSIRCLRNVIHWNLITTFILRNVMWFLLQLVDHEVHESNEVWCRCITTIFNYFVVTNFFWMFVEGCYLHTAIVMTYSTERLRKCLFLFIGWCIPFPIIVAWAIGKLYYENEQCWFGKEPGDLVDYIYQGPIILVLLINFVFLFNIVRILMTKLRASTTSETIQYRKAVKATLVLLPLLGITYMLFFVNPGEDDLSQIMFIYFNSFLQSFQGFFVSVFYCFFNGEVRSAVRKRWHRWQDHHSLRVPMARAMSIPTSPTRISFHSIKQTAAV
T7 sequence (P24387 whole entry): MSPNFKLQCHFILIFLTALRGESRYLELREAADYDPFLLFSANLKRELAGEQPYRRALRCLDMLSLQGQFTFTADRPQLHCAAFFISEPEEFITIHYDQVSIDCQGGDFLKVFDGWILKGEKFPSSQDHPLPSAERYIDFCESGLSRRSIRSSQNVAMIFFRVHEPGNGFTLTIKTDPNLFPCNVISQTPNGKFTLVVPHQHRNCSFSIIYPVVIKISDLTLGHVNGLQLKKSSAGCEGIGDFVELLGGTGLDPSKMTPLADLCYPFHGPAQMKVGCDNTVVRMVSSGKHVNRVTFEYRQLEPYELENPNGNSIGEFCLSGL

[8] = target: FAD-linked sulfhydryl oxidase ALR (Homo sapiens, UniProt P55789); test: ALR-catalysed DTT oxidation blockers – biochemical, H2O2 detection, luminescence, cherry-pick, dose response (AID 493248)
Sequence of FAD-linked sulfhydryl oxidase ALR (P55789 whole entry): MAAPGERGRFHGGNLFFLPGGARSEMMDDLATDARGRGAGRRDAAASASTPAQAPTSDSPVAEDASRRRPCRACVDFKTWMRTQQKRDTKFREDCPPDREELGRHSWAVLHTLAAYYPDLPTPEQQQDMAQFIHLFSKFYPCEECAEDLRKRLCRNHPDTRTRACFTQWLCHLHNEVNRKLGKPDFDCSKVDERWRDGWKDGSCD

Sequence of Large T antigen (P03070 whole entry): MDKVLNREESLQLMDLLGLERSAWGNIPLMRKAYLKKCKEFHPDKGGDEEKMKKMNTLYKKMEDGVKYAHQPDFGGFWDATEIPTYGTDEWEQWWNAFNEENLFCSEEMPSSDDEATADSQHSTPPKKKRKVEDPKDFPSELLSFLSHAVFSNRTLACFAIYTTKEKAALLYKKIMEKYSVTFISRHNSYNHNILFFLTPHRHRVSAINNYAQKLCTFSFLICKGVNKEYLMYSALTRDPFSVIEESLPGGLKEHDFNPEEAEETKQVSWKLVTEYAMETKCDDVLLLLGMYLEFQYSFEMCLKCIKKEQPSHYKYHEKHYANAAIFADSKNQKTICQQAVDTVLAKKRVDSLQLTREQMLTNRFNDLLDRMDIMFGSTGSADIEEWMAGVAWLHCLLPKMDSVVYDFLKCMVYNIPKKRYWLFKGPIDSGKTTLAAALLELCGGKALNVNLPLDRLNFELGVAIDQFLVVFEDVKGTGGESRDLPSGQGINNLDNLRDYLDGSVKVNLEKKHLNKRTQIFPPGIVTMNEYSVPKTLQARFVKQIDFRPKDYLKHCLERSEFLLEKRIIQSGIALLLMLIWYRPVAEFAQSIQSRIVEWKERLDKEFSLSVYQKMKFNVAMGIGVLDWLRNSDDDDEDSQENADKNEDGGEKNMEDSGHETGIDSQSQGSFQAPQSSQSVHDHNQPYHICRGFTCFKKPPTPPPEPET
Sequence of Genome polyprotein (P29990 2492-3391 limits assumed): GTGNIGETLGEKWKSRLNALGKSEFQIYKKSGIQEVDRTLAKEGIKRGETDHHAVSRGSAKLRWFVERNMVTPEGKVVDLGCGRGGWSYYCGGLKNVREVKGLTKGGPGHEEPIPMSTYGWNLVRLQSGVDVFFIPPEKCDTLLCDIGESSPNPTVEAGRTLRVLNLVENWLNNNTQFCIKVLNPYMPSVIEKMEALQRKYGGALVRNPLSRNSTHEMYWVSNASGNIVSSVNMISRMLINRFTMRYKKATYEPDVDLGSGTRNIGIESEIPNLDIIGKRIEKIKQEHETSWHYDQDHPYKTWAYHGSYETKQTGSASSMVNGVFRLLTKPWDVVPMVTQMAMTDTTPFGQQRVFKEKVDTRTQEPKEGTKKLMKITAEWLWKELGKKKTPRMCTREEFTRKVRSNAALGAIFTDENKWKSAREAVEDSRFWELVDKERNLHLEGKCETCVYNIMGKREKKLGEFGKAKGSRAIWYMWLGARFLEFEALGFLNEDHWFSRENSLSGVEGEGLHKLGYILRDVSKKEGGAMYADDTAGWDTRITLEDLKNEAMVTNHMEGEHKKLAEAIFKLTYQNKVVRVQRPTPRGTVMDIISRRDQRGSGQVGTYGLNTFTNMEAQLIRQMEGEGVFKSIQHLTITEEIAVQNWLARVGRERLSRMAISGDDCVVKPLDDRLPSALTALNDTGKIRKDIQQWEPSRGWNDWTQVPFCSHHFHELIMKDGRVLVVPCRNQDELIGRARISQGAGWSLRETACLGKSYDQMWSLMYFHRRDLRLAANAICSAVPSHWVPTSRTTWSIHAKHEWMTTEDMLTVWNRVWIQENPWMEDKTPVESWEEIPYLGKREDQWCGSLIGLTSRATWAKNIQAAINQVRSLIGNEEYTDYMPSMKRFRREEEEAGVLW

SMILES: COc1cc(/C=N/NC(=O)c2cnccn2)ccc1O
- IC50 (Large T antigen): 5.52 µM (active)
- IC50 [1]: 20.3 µM (active)

SMILES: CN1C(=O)C(=Cc2ccccc2Oc2ccc(Cl)cc2)C(=O)N(C)C1=O
- IC50 (Genome polyprotein): 41.5 µM (active)

SMILES: O=C(Nc1ccc(O)cc1)C1CCCO1 (stereo not drawn)
- IC50 (Large T antigen): 28.1 µM (active)

SMILES: Clc1cc(NCc2cccs2)ccc1N1CCOCC1
- IC50 (Large T antigen): 65.2 µM (active)
- IC50 (Protein skinhead-1): > 100 µM (inactive)

SMILES: CN(C)c1ccc(/C=C/c2cc[n+]([O-])cc2)cc1
- IC50 (Large T antigen): 11.4 µM (active)

SMILES: O=C1C(Cl)=C(N2CCOCC2)C(=O)N1c1ccc(Br)cc1
- AC50 [2]: 4.11 µM (active)
- EC50 (Protein RecA): 2.11 µM (active)
- IC50 (Genome polyprotein): 36.2 µM (active)

SMILES: Cc1cccc(-n2c(C)cc(C=C3C(=O)c4ccccc4C3=O)c2C)c1
- EC50 [3]: 46.6 µM (active)
- EC50 [4]: 54.2 µM (active)
- EC50 [5]: 11.4 µM (active)
- EC50 (H4): 7.1 µM (active)
- EC50 [6]: 34.7 µM (inconclusive)
- EC50 [7]: 12.9 µM (active)

SMILES: COc1ccc(NC2CCCN(C(=O)CCn3cccn3)C2)cc1 (stereo not drawn)
- IC50 (Large T antigen): 9.68 µM (active)
- AC50 [8]: 2.78 µM (active)
